In patent US20250059174A1, “Pharmaceutical Compounds and Compositions as C-Kit Kinase Inhibitors” (Enanta Pharmaceuticals, Inc., priority 2023, published 2025):

What was measured:
[1] = target: Recombinant human c-KIT kinase (Homo sapiens (Human), UniProt P10721); assay: c-KIT kinase chemiluminescence assay (ADP-Glo); type: biochemical; conditions: ATP 50 μM
Protocol: The c-KIT Kinase Enzyme System (V4498) and ADP-Glo™ Kinase Assay kit (V6930) were purchased from Promega (Madison, WI). DMSO (D2650) was purchased from Sigma-Aldrich (Burlington, MA).
Kinase Reaction: The kinase assay was based on the recommended protocol by c-KIT Kinase Enzyme System from Promega. Recombinant human c-KIT kinase in 3 μL of assay buffer (40 mM Tris pH 7.5, 20 mM MgCl2, 0.1 mg/mL BSA and 50 μM DTT) was added to the test or high control wells and 3 μL of assay buffer was added to the low control wells. The microplate was centrifuged at 800 rotations per minute (rpm) for 60 s and incubated at room temperature (RT) for 30 min. Next, 2 μL of buffered ATP and polyEY substrate solution was added to all wells. The microplate was centrifuged at 800 rpm for 60 s and incubated at RT for 2 h.
ADP detection with ADP-Glo™ Kinase Assay: After the kinase reaction incubation, 5 μL of ADP-Glo™ reagent was added to all wells. The microplate was centrifuged at 800 rpm for 60 s and incubated at RT for 40 min. Ten microliter (10 μL) of Kinase Detection Reagent (Luciferin-Luciferase system) was then added to all wells. The microplate was centrifuged at 800 rpm for 60 s and incubated at RT for 60 min. Kinase activity was measured as increase in luminescence at RT in an Envision plate reader equipped with 560 nm filters and operating in endpoint mode. Data Analysis: Endpoint chemiluminescence from high and low control wells were used to calculate normalized c-KIT activity at various concentrations of test compounds. The normalized activities were fitted to inhibitor-versus-normalized response fit in GraphPad Prism 7 to determine half-maximal inhibitory concentration (IC50) and hill coefficient values (H).
Where I is the inhibitor concentration and H is the Hill coefficient.

M-07e cells = assay: M-07e cellular assay (SCF-mediated cell proliferation); type: cell-based; conditions: Homo sapiens, 72 hours, CellTiter Glo
Protocol: M-07e cells (Creative Bioarray, CSC-C0249) which endogenously express human c-KIT were used to evaluate the effect of compounds on stem cell factor (SCF)-mediated cell proliferation. M-07e cells were cultured in growth media (RPMI+10% FBS+1% penicillin/streptomycin+10 ng/mL GM-CSF) at 5E5-1.5E6 cells/mL, replenishing media every 3-4 days. 1.5E4 cells were seeded per well in 384 well tissue culture treated plates in 20 μL assay media (RPMI+[…]+1% penicillin/streptomycin) without growth factor stimulation and incubated at 37° C. in a CO2 humidity-controlled incubator. Twenty-four hours later, three-fold serially diluted test compounds in media containing SCF (at the previously determined EC90) were added to the plated M-07e cells and incubated for an additional 72 hours. Cell viability was determined by adding 25 μL CellTiter Glo (Promega) to the cells and the luminescence was measured using a Perkin Elmer Envision plate reader. The EC50 was determined using GraphPad Prism. Percent cell growth was determined after normalizing the curve to the mean RLU high control (no compound control wells) at 100% and the mean RLU low control (no SCF control wells) at 0%.

Recombinant human c-KIT kinase, sequence (P10721 26-976): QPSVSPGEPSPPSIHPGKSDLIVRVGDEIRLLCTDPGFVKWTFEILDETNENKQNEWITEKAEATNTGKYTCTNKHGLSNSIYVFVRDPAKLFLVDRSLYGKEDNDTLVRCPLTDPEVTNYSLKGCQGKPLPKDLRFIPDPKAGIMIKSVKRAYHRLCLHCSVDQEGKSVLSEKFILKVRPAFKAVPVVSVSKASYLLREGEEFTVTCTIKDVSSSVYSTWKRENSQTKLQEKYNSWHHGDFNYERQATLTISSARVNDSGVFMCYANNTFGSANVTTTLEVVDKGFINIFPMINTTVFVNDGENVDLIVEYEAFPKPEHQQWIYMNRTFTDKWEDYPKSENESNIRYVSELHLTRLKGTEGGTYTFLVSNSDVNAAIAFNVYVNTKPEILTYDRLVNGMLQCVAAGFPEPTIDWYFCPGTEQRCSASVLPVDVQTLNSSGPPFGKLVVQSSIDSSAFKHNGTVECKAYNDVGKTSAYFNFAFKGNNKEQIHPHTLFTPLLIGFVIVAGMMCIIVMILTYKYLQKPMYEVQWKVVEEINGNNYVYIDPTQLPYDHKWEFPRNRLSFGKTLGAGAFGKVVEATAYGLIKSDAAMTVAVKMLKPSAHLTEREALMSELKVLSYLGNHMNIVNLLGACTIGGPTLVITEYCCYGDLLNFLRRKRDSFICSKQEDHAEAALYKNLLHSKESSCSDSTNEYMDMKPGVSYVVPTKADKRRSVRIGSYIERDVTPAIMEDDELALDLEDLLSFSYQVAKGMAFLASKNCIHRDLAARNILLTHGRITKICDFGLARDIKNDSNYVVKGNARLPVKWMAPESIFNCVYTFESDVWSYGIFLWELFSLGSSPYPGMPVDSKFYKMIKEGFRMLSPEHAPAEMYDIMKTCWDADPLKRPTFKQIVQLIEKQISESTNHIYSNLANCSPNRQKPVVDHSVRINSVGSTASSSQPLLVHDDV

| IC50 [1] [µM] | Structure (SMILES) | EC50 (M-07e cells) [µM] |
| --- | --- | --- |
| 0.1 to 1 | Cc1ccc(-c2noc([C@H]3C[C@@H]3F)n2)cc1NC(=O)c1cnn2cc(F)ccc12 [Example 1a] | 0.1 to 1 |
| > 1 | Cc1ccc(-c2noc([C@H]3C[C@@H]3F)n2)cc1NC(=O)c1cncn1C [Example 2] | > 1 |
| – | Cc1ccc(-c2noc(C3C[C@@H]3F)n2)cc1NC(=O)c1cnn2ccc(-c3cnn(C(F)F)c3)cc12 (stereo partly shown) [Example 2a] | < 0.1 |
| > 1 | Cc1ccc(-c2noc([C@H]3C[C@@H]3F)n2)cc1NC(=O)c1cccnc1 [Example 3] | > 1 |
| > 1 | Cc1ccc(-c2noc([C@H]3C[C@@H]3F)n2)cc1NC(=O)c1cnc(C)n1C [Example 4] | > 1 |
| > 1 | Cc1ccc(-c2noc([C@H]3C[C@@H]3F)n2)cc1NC(=O)c1cccnn1 [Example 5] | > 1 |
| < 0.1 | Cc1ccc(-c2noc([C@H]3C[C@@H]3F)n2)cc1NC(=O)c1cnn2ccccc12 [Example 6] | < 0.1 |
| > 1 | Cc1ccc(-c2noc([C@H]3C[C@@H]3F)n2)cc1NC(=O)c1cnn2cccnc12 [Example 7] | > 1 |
| 0.1 to 1 | Cc1ccc(-c2noc([C@H]3C[C@@H]3F)n2)cc1NC(=O)c1cnc(-c2ccccc2)n1C [Example 14] | > 1 |
| 0.1 to 1 | Cc1ccc(-c2noc([C@H]3C[C@@H]3F)n2)cc1NC(=O)c1cnn2ccncc12 [Example 15] | 0.1 to 1 |
| 0.1 to 1 | Cc1ccc(-c2noc([C@H]3C[C@@H]3F)n2)cc1NC(=O)c1cnn(-c2ccccc2)c1 [Example 23] | 0.1 to 1 |
| > 1 | Cc1ccc(-c2noc([C@H]3C[C@@H]3F)n2)cc1NC(=O)c1ccnc2ccccc12 [Example 27] | > 1 |
| < 0.1 | Cc1ccc(-c2noc([C@H]3C[C@@H]3F)n2)cc1NC(=O)c1cnc2sccn12 [Example 30] | 0.1 to 1 |
| > 1 | Cc1ncc(C(=O)Nc2cc(-c3noc([C@H]4C[C@@H]4F)n3)ccc2C)s1 [Example 34] | > 1 |
| > 1 | Cc1ccc(-c2noc([C@H]3C[C@@H]3F)n2)cc1NC(=O)c1cnn(C)c1 [Example 35] | > 1 |
| > 1 | Cc1ccc(-c2noc([C@H]3C[C@@H]3F)n2)cc1NC(=O)c1cnn2c1CCC2 [Example 36] | > 1 |
| > 1 | Cc1ccc(-c2noc([C@H]3C[C@@H]3F)n2)cc1NC(=O)c1cnc2n1CCC2 [Example 37] | > 1 |
| 0.1 to 1 | CC(=O)Nc1ncc(C(=O)Nc2cc(-c3noc([C@H]4C[C@@H]4F)n3)ccc2C)s1 [Example 38] | 0.1 to 1 |
| > 1 | Cc1ccc(-c2noc([C@H]3C[C@@H]3F)n2)cc1NC(=O)c1coc2ccccc12 [Example 39] | > 1 |
| > 1 | Cc1ccc(-c2noc([C@H]3C[C@@H]3F)n2)cc1NC(=O)c1n[nH]c2ncccc12 [Example 40] | > 1 |
| < 0.1 | Cc1ccc(-c2noc([C@H]3C[C@@H]3F)n2)cc1NC(=O)c1cnn2cc(Br)ccc12 [Example 41, 6-bromo-N-(5-(5-((1R,2S)-2-fluorocyclopropyl)-1,2,4-oxadiazol-3-yl)-2-methylphenyl)pyrazolo [1,5-a]pyridine-3-carboxamide] | 0.1 to 1 |
| < 0.1 | Cc1ccc(-c2noc([C@H]3C[C@@H]3F)n2)cc1NC(=O)c1cnn2ccc(Br)cc12 [Example 42, 5-bromo-N-(5-(5-((1R,2S)-2-fluorocyclopropyl)-1,2,4-oxadiazol-3-yl)-2-methylphenyl)pyrazolo[1,5-a]pyridine-3-carboxamide] | 0.1 to 1 |
| < 0.1 | Cc1ccc(-c2noc([C@H]3C[C@@H]3F)n2)cc1NC(=O)c1cnn2ccc(N3CC4(COC4)C3)cc12 [Example 43] | < 0.1 |
| < 0.1 | Cc1ccc(-c2noc([C@H]3C[C@@H]3F)n2)cc1NC(=O)c1cnn2ccc(N3CCS(=O)(=O)CC3)cc12 [Example 44] | < 0.1 |
| 0.1 to 1 | COc1ccc(-n2cc(C(=O)Nc3cc(-c4noc([C@H]5C[C@@H]5F)n4)ccc3C)cn2)cc1 [Example 52] | 0.1 to 1 |

| IC50 [1] [µM] | Structure (SMILES) | EC50 (M-07e cells) [µM] |
| --- | --- | --- |
| < 0.1 | Cc1ccc(-c2noc([C@H]3C[C@@H]3F)n2)cc1NC(=O)c1cnn2cc(N3CC4(COC4)C3)ccc12 [Example 54] | < 0.1 |
| < 0.1 | Cc1ccc(-c2noc([C@H]3C[C@@H]3F)n2)cc1NC(=O)c1cnn2ccc(C3CC3)cc12 [Example 55] | 0.1 to 1 |
| < 0.1 | Cc1ccc(-c2noc([C@H]3C[C@@H]3F)n2)cc1NC(=O)c1cnn2cc(C3CC3)ccc12 [Example 56] | 0.1 to 1 |
| < 0.1 | Cc1ccc(-c2noc([C@H]3C[C@@H]3F)n2)cc1NC(=O)c1cnn2cc(Cl)ccc12 [Example 57] | 0.1 to 1 |
| < 0.1 | COc1ccc2c(C(=O)Nc3cc(-c4noc([C@H]5C[C@@H]5F)n4)ccc3C)cnn2c1 [Example 58] | < 0.1 |
| < 0.1 | Cc1ccc(-c2noc([C@H]3C[C@@H]3F)n2)cc1NC(=O)c1cnn2ccc(Cl)cc12 [Example 59] | 0.1 to 1 |
| < 0.1 | COc1ccn2ncc(C(=O)Nc3cc(-c4noc([C@H]5C[C@@H]5F)n4)ccc3C)c2c1 [Example 60] | < 0.1 |
| < 0.1 | Cc1ccc2c(C(=O)Nc3cc(-c4noc([C@H]5C[C@@H]5F)n4)ccc3C)cnn2c1 [Example 61] | < 0.1 |
| 0.1 to 1 | Cc1ccc(-c2noc([C@H]3C[C@@H]3F)n2)cc1NC(=O)c1cnn2cc(F)c(Br)cc12 [Example 62] | > 1 |
| < 0.1 | C/C=C/c1ccn2ncc(C(=O)Nc3cc(-c4noc([C@H]5C[C@@H]5F)n4)ccc3C)c2c1 [Example 69] | < 0.1 |
| < 0.1 | Cc1ccc(-c2noc([C@H]3C[C@@H]3F)n2)cc1NC(=O)c1cnn2ccc(CN3CCOCC3)cc12 [Example 70] | 0.1 to 1 |
| < 0.1 | Cc1ccc(-c2noc([C@H]3C[C@@H]3F)n2)cc1NC(=O)c1cnn2ccc(C=O)cc12 [Example 71] | 0.1 to 1 |
| < 0.1 | Cc1ccc(-c2noc([C@H]3C[C@@H]3F)n2)cc1NC(=O)c1cnn2ccc(CO)cc12 [Example 72] | 0.1 to 1 |
| > 1 | Cc1ccc(-c2noc([C@H]3C[C@@H]3F)n2)cc1NC(=O)c1cnn2cc(Cl)c(Br)cc12 [Example 73] | > 1 |
| – | Cc1ccc(-c2noc([C@H]3C[C@@H]3F)n2)cc1NC(=O)c1cnc2n1Cc1ccccc1-2 [Example 99] | < 0.1 |
| – | Cc1ncc(-c2ccn3ncc(C(=O)Nc4cc(-c5noc([C@H]6C[C@@H]6F)n5)ccc4C)c3c2)c(C)n1 [Example 168] | < 0.1 |
| – | Cc1ccc(-c2noc(C3C[C@@H]3F)n2)cc1NC(=O)c1cnn2ccc(N3C[C@H](CS(C)(=O)=O)[C@@H]3C)cc12 (stereo partly shown) [Example 172] | < 0.1 |
| – | Cc1ccc(-c2noc([C@H]3C[C@@H]3F)n2)cc1NC(=O)c1cnc(-c2cnc(N)nc2)o1 [Example 308-64] | > 1 |
| – | Cc1ccc(-c2nc([C@H]3C[C@@H]3F)cs2)cc1NC(=O)c1cnn2ccc(N3CC4(COC4)C3)cc12 [Example 309] | < 0.1 |
| – | Cc1ncc(-c2ncc(OC(F)(F)F)cn2)cc1NC(=O)c1cnn2ccc(-c3c(C)nc(N)nc3C)cc12 [Example 364] | < 0.1 |
| – | Cc1nc(N)nc(C)c1-c1ccn2ncc(C(=O)Nc3cc(-c4noc([C@H]5C[C@@H](OC(F)(F)F)C5)n4)sc3C)c2c1 [Example 368] | 0.1 to 1 |
| – | Cc1nc(N)nc(C)c1-c1ccn2ncc(C(=O)Nc3cc(-c4noc(C5CN(C(=O)OC(C)(C)C)C5)n4)sc3C)c2c1 [Example 369] | > 1 |
| – | Cc1nc(N)nc(C)c1-c1ccn2ncc(C(=O)Nc3cc(-c4noc([C@H]5C[C@@H]5F)n4)sc3C)c2c1 [Example 370] | > 1 |
| – | Cc1nc(N)nc(C)c1-c1ccn2ncc(C(=O)Nc3cc(-c4noc(C5CN(C(=O)[C@H]6C[C@@H]6F)C5)n4)sc3C)c2c1 [Example 371] | > 1 |
| – | Cc1nn(-c2ccc(C3CC3)cc2)cc1NC(=O)c1cnn2ccc(N3CC4(COC4)C3)cc12 [Example 372] | > 1 |
